PMC10223019, “Preclinical Evaluation of a PSMA-Targeting Homodimer with an Optimized Linker for Imaging of Prostate Cancer” (Molecules, 2023)

Experiments:
[1] = tested on: PSMA expressing LS174T cells; experiment: Internalization and cell uptake assay; assay type: cell-based, human; details: 2 h 37 °C
Procedure: LS174T human colon carcinoma cells transfected with human PSMA were obtained from Dr. Sandra Heskamp (Radboud UMC, Nijmegen). Cells were cultured in RPMI-1640 media supplemented with 2 mM glutamine, 10% fetal bovine serum (FBS) and 0.3 mg/mL G418 (Geneticin, Sigma Aldrich, St. Louis, MO, USA).
Cells were seeded (1.2 × 10^6 cells/well) and cultured to confluency for 24 h prior to experiments. We prepared 10^−9 M solutions of [^111In]In-PSMA-617, [^111In]In-22, and [^111In]In-30 in internalization media (RPMI, 20 mM HEPES, 1% BSA, pH 7.4). The media were removed from each well, and they were rinsed twice with PBS at rt. 2 mL of the radioactive compound was then added to each well and incubated at 37 °C for 2 h. For the internalization assay, the media containing radioactive compound were removed, and each well was washed twice with cold PBS. A total of 1 mL of Glycine buffer (50 mM glycine, 100 mM NaCl, pH 2.8) was added immediately and incubated for 10 min at rt. The glycine wash was then collected into counting tubes (membrane-bound fraction). An extra wash was performed and collected in the same tubes. A total of 1 mL of NaOH (1 M) was then added to each tube and left for 15 min at rt. The lysate (internalized fraction) was then collected in separate counting tubes, together with one extra NaOH wash. Data were normalized to 1,000,000 cells and percentage added dose.

[2] = tested on: BALB/c nude mice bearing LS174T PSMA-positive tumor xenografts; experiment: Ex vivo biodistribution studies; assay type: in vivo
Procedure: Animal experiments were performed in 8–10 weeks old male BALB/c nude mice (Janvier Labs, Le Genest-Saint-Isle, France). Animals were housed in individually ventilated cages (Blue line IVC, 4 mice per cage) under nonsterile standard conditions with cage enrichment present and free access to chlorophyll-free animal chow (Sniff GmbH, Soest, Germany) and water and acclimated for 1 week before experiments. Mice were subcutaneously inoculated with 4.0 × 10^6 LS174T cells in the right flank, diluted in 100 μL of cell suspension. Seven days after tumor cell inoculation, when xenografts were approximately 0.2–0.3 cm^3, the tracers were injected intravenously via the tail vein. All experiments were approved by the institutional Animal Welfare Committee and were conducted in accordance with the guidelines of the Revised Dutch Act on Animal Experimentation (WOD).
Mice were intravenously injected with ~1 nmol of either [^111In]In-PSMA-617, [^111In]In-22 or [^111In]In-30 with molar activity of 5 MBq/nmol for ex vivo biodistribution studies. Mice (n = 4/timepoint) were euthanized by cervical dislocation at 1, 4, and 24 h p.i. A block group was included, and mice were euthanized at 4 h p.i. Organs were collected in tubes and counted in the gamma counter, where the calibration factor was determined by measuring different known activities of indium-111.

[3] = Stability in phosphate-buffered saline (PBS), radio-HPLC; assay type: physicochemical; details: 24 h post-incubation, 37 °C, indium-111 labeled, intact fraction
Procedure: [^111In]In-22 or [^111In]In-30 (~10 MBq, 20 µL) was mixed with 80 μL of PBS (0.01 M, pH 7.4) and incubated at 37 °C for up to 24 h. A sample of the PBS solution was loaded directly onto the radio-HPLC at 1, 4, and 24 h post-incubation.

[4] = Stability in mouse serum, radio-HPLC; assay type: in vitro ADME
Procedure: [^111In]In-22 or [^111In]In-30 (~35 MBq, 70 µL) was mixed with 330 μL of mouse serum and incubated at 37 °C for up to 24 h. After 1, 4, and 24 h incubation, 50 μL of the mouse serum solution was added to a separate vial containing 50 µL of acetonitrile. The sample was centrifuged at 5000× g for 20 min. The supernatant was analyzed by radio-HPLC.

[5] = LogD7.4 by shake-flask method (PBS/n-octanol); assay type: physicochemical; details: LogD7.4, PBS pH 7.4/n-octanol, indium-111 labeled compound
Procedure: The distribution coefficients (LogD7.4 values) were determined by a shake-flask method, in which 2 μL (~0.5 MBq) of the labeling solution ([^111In]In-22 or [^111In]In-30) were added to an Eppendorf tube containing 1 mL of PBS (0.01 M, pH 7.4)/n-octanol (v/v, 1:1). After vigorous vortexing, the solution was centrifuged at 2500× g for 15 min for phase separation. Samples (3 × 10 μL) of the two phases were taken out and measured in a gamma counter. LogD7.4 values were calculated by using the following equation: LogD7.4 = log [(counts in octanol phase)/(counts in aqueous phase)] and the experiment was performed in triplicate.

[6] = 4 h p.i. block group (excess unlabeled PSMA ligand)

CC(C)C[C@H](NC(=O)[C@H](Cc1ccccc1)NC(=O)[C@H](CC(=O)O)NC(=O)CCC(C(=O)O)N1CCN(CC(=O)[O-])CCN(CC(=O)[O-])CCN(CC(=O)[O-])CC1)[C@@H](O)CC(=O)NCCCCCC(=O)NCCCC[C@H](NC(=O)N[C@@H](CCC(=O)O)C(=O)O)C(=O)O.[111In+3] (stereo partly drawn) [[^111In]In-22]
Internalized fraction ([1]; 10^-9 M, NaOH lysate): 0.53 ± 0.08 % AD | Membrane-bound uptake ([1]; 10^-9 M, glycine wash): 1.02 ± 0.15 % AD | Total uptake ([1]; 10^-9 M, normalized to 1,000,000 cells): 1.55 ± 0.21 % AD | Internalized fraction as share of total uptake (internalization) [1]: 34.2% | Membrane-bound uptake as share of total uptake [1]: 66% | Membrane-bound uptake as share of total uptake ([1]; listed as [111In]In-22): 65.8% | Tumor-to-muscle (T/M) ratio ([2]; 1 h p.i.): 31 | Blood uptake ([2]; 1 h p.i., i.v. ~1 nmol): 0.14 ± 0.01 % ID/g | Bone uptake ([2]; 1 h p.i., i.v. ~1 nmol): 0.20 ± 0.01 % ID/g | Heart uptake ([2]; 1 h p.i., i.v. ~1 nmol): 0.13 ± 0.05 % ID/g | Intestines uptake ([2]; 1 h p.i., i.v. ~1 nmol): 0.26 ± 0.17 % ID/g | Kidney uptake ([2]; 1 h p.i., i.v. ~1 nmol): 22.56 ± 2.59 % ID/g | Liver uptake ([2]; 1 h p.i., i.v. ~1 nmol): 0.17 ± 0.03 % ID/g | Lung uptake ([2]; 1 h p.i., i.v. ~1 nmol): 0.45 ± 0.07 % ID/g | Muscle uptake ([2]; 1 h p.i., i.v. ~1 nmol): 0.07 ± 0.01 % ID/g | Pancreas uptake ([2]; 1 h p.i., i.v. ~1 nmol): 0.22 ± 0.03 % ID/g | Prostate uptake ([2]; 1 h p.i., i.v. ~1 nmol): 0.51 ± 0.25 % ID/g | Skin uptake ([2]; 1 h p.i., i.v. ~1 nmol): 0.44 ± 0.16 % ID/g | Spleen uptake ([2]; 1 h p.i., i.v. ~1 nmol): 1.82 ± 0.37 % ID/g | Stomach uptake ([2]; 1 h p.i., i.v. ~1 nmol): 0.11 ± 0.01 % ID/g | Tumor uptake ([2]; 1 h p.i., i.v. ~1 nmol): 2.05 ± 0.52 % ID/g | Tumor-to-muscle (T/M) ratio ([2]; 4 h p.i.): 48 | Blood uptake [2, 6]: 0.02 ± 0.00 % ID/g | Bone uptake [2, 6]: 0.23 ± 0.13 % ID/g | Heart uptake [2, 6]: 0.04 ± 0.01 % ID/g | Intestines uptake [2, 6]: 0.27 ± 0.03 % ID/g | Kidney uptake [2, 6]: 8.20 ± 0.67 % ID/g | Liver uptake [2, 6]: 0.09 ± 0.00 % ID/g | Lung uptake [2, 6]: 0.09 ± 0.01 % ID/g | Muscle uptake [2, 6]: 0.03 ± 0.01 % ID/g | Pancreas uptake [2, 6]: 0.04 ± 0.01 % ID/g | Prostate uptake [2, 6]: 0.09 ± 0.01 % ID/g | Skin uptake [2, 6]: 0.24 ± 0.07 % ID/g | Spleen uptake [2, 6]: 0.09 ± 0.00 % ID/g | Stomach uptake [2, 6]: 0.17 ± 0.13 % ID/g | Tumor uptake [2, 6]: 0.27 ± 0.14 % ID/g | Blood uptake ([2]; 4 h p.i., i.v. ~1 nmol): 0.02 ± 0.01 % ID/g | Bone uptake ([2]; 4 h p.i., i.v. ~1 nmol): 0.11 ± 0.06 % ID/g | Heart uptake ([2]; 4 h p.i., i.v. ~1 nmol): 0.04 ± 0.01 % ID/g | Intestines uptake ([2]; 4 h p.i., i.v. ~1 nmol): 0.30 ± 0.05 % ID/g | Kidney uptake ([2]; 4 h p.i., i.v. ~1 nmol): 13.55 ± 1.04 % ID/g | Liver uptake ([2]; 4 h p.i., i.v. ~1 nmol): 0.10 ± 0.01 % ID/g | Lung uptake ([2]; 4 h p.i., i.v. ~1 nmol): 0.12 ± 0.03 % ID/g | Muscle uptake ([2]; 4 h p.i., i.v. ~1 nmol): 0.03 ± 0.02 % ID/g | Pancreas uptake ([2]; 4 h p.i., i.v. ~1 nmol): 0.06 ± 0.03 % ID/g | Prostate uptake ([2]; 4 h p.i., i.v. ~1 nmol): 0.18 ± 0.17 % ID/g | Skin uptake ([2]; 4 h p.i., i.v. ~1 nmol): 0.24 ± 0.18 % ID/g | Spleen uptake ([2]; 4 h p.i., i.v. ~1 nmol): 0.30 ± 0.09 % ID/g | Stomach uptake ([2]; 4 h p.i., i.v. ~1 nmol): 0.09 ± 0.06 % ID/g | Tumor uptake ([2]; 4 h p.i., i.v. ~1 nmol): 1.23 ± 0.59 % ID/g | Tumor-to-muscle (T/M) ratio ([2]; 24 h p.i.): 14 | Bone uptake ([2]; 24 h p.i., i.v. ~1 nmol): 0.13 ± 0.04 % ID/g | Heart uptake ([2]; 24 h p.i., i.v. ~1 nmol): 0.03 ± 0.01 % ID/g | Intestines uptake ([2]; 24 h p.i., i.v. ~1 nmol): 0.04 ± 0.02 % ID/g | Kidney uptake ([2]; 24 h p.i., i.v. ~1 nmol): 5.89 ± 1.49 % ID/g | Liver uptake ([2]; 24 h p.i., i.v. ~1 nmol): 0.06 ± 0.01 % ID/g | Lung uptake ([2]; 24 h p.i., i.v. ~1 nmol): 0.05 ± 0.01 % ID/g | Muscle uptake ([2]; 24 h p.i., i.v. ~1 nmol): 0.03 ± 0.00 % ID/g | Pancreas uptake ([2]; 24 h p.i., i.v. ~1 nmol): 0.03 ± 0.01 % ID/g | Prostate uptake ([2]; 24 h p.i., i.v. ~1 nmol): 0.08 ± 0.03 % ID/g | Skin uptake ([2]; 24 h p.i., i.v. ~1 nmol): 0.15 ± 0.01 % ID/g | Spleen uptake ([2]; 24 h p.i., i.v. ~1 nmol): 0.09 ± 0.02 % ID/g | Stomach uptake ([2]; 24 h p.i., i.v. ~1 nmol): 0.02 ± 0.01 % ID/g | Tumor uptake ([2]; 24 h p.i., i.v. ~1 nmol): 0.61 ± 0.40 % ID/g | Tumor uptake ([2]; 24 h p.i., i.v. ~1 nmol, listed as [111In]In-22): 0.41 ± 0.08 % ID/g | Stability in PBS (%) [3]: 95.4% | Stability in Mouse Serum (%) ([4]; 24 h post-incubation, 37 °C, indium-111 labeled, intact fraction): 95.1% | Proteolytic degradation ([4]; mouse serum up to 24 h): No proteolytic degradation | logD [5]: −3.26 ± 0.05
